# Experimental data as given in ChEMBL document CHEMBL3124856, “Design, synthesis, and pharmacological evaluation of a novel series of pyridopyrazine-1,6-dione γ-secretase modulators” (J Med Chem, 2014).
# Columns and labels:
# [1] = tested on: Cavia porcellus; assay: Antialzheimer activity in po dosed Hartley guinea pig assessed as reduction in brain amyloid beta 40 level measured after 4 hrs post dosing; format: functional, organism-based
# [2] = target: Gamma-secretase; assay: Modulation of gamma-secretase (unknown origin) expressed in CHO cells overexpressing human wild type APP assessed as reduction of amyloid beta 42 level after 24 hrs by ELISA; format: cell-based
# [3] = target: Cytochrome P450 2C9 (Homo sapiens, UniProt P11712); assay: Inhibition of CYP2C9 (unknown origin); format: ADME
# Cytochrome P450 2C9, sequence (P11712 whole entry): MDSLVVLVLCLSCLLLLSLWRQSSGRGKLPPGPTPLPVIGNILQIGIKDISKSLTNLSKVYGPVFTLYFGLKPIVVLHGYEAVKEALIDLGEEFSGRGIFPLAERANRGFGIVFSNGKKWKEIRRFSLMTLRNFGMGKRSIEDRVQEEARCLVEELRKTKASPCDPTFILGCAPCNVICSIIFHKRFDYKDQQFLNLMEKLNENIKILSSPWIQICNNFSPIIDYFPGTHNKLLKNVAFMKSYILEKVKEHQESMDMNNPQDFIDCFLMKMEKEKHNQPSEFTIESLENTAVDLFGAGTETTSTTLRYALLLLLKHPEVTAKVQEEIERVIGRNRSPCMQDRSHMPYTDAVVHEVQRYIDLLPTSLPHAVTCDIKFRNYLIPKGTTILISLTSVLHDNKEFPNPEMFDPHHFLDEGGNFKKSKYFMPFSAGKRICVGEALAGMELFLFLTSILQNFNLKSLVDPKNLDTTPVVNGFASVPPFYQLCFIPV
# [4] = tested on: Cavia porcellus; assay: Antialzheimer activity in po dosed Hartley guinea pig assessed as reduction in brain amyloid beta 42 level measured after 4 hrs post dosing; format: functional, organism-based
# [5] = Half life in rat at 1 mg/kg, iv; format: ADME, organism-based; design: dose 1 mg/kg, route intravenous; settings: in vivo
# [6] = Drug uptake in Hartley guinea pig cerebrospinal fluid at 10 mg/kg, po after 4 hrs post dosing; format: ADME, organism-based, Cavia porcellus; design: dose 10 mg/kg, route oral; settings: read-out: Drug uptake
# [7] = tested on: Cavia porcellus; assay: Antialzheimer activity in Hartley guinea pig assessed as reduction in brain amyloid beta 40 level at 30 mg/kg, po measured after 4 hrs post dosing relative to control; format: functional; design: scale not given: the % may be the effect or the level left
# [8] = Clearance in rat at 1 mg/kg, iv; format: ADME, organism-based; design: dose 1 mg/kg, route intravenous; settings: in vivo
# [9] = Ratio of drug uptake in brain to plasma in rat at 5 mg/kg, po after 1 hr; format: ADME, organism-based; design: dose 5 mg/kg, route oral; settings: read-out: BPR
# [10] = Drug uptake in rat brain at 5 mg/kg, po after 1 hr; format: ADME, organism-based; design: dose 5 mg/kg, route oral; settings: read-out: Drug uptake
# [11] = Plasma concentration in Hartley guinea pig at 10 mg/kg, po after 4 hrs post dosing; format: ADME, organism-based, Cavia porcellus; design: dose 10 mg/kg, route oral
# [12] = Fraction unbound in Hartley guinea pig brain; format: ADME, tissue-based, Cavia porcellus
# [13] = tested on: Cavia porcellus; assay: Antialzheimer activity in Hartley guinea pig assessed as reduction in brain amyloid beta 40 level at 90 mg/kg, po measured after 4 hrs post dosing relative to control; format: functional; design: scale not given: the % may be the effect or the level left
# [14] = Plasma concentration in rat at 5 mg/kg, po after 1 hr; format: ADME, organism-based; design: dose 5 mg/kg, route oral
# [15] = tested on: MDR1 (human); assay: Efflux ratio of permeability in MDCK cells expressing human MDR1; format: ADME, cell-based, Canis lupus familiaris; settings: dog
# [16] = target: Cytochrome P450 2D6 (Homo sapiens, UniProt P10635); assay: Inhibition of CYP2D6 (unknown origin); format: ADME
# Cytochrome P450 2D6, sequence (P10635 whole entry): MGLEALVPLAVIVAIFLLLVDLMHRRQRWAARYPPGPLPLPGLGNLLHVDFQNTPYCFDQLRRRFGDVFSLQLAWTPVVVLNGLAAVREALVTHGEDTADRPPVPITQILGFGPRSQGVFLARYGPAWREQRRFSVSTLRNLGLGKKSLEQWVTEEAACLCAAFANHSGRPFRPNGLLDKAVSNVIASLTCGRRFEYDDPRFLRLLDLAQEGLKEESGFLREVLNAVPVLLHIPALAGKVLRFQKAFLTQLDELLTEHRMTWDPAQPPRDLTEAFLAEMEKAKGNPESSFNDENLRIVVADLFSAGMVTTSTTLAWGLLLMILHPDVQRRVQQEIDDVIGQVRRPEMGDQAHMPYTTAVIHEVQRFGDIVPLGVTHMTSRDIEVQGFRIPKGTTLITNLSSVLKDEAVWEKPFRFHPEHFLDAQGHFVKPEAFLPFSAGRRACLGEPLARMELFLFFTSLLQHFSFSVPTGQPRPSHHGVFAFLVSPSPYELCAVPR
# [17] = Ratio of unbound drug level in brain to plasma in rat; format: ADME
# [18] = Fraction unbound in rat plasma; format: ADME, cell-free
# [19] = tested on: Cavia porcellus; assay: Antialzheimer activity in Hartley guinea pig assessed as reduction in brain total amyloid beta level at 30 mg/kg, po measured after 4 hrs post dosing relative to control; format: functional; design: scale not given: the % may be the effect or the level left
# [20] = tested on: Cavia porcellus; assay: Antialzheimer activity in Hartley guinea pig assessed as reduction in brain amyloid beta 42 level at 90 mg/kg, po measured after 4 hrs post dosing relative to control; format: functional; design: scale not given: the % may be the effect or the level left
# [21] = Plasma concentration in Hartley guinea pig at 90 mg/kg, po after 4 hrs post dosing; format: ADME, organism-based, Cavia porcellus; design: dose 90 mg/kg, route oral
# [22] = Fraction unbound in rat brain; format: ADME, tissue-based
# [23] = Aqueous kinetic solubility of the compound at pH 6.5; format: physicochemical; settings: read-out: Kinetic_solubility
# [24] = target: Cytochrome P450 2C19 (Homo sapiens, UniProt P33261); assay: Inhibition of CYP2C19 (unknown origin); format: ADME
# Cytochrome P450 2C19, sequence (P33261 whole entry): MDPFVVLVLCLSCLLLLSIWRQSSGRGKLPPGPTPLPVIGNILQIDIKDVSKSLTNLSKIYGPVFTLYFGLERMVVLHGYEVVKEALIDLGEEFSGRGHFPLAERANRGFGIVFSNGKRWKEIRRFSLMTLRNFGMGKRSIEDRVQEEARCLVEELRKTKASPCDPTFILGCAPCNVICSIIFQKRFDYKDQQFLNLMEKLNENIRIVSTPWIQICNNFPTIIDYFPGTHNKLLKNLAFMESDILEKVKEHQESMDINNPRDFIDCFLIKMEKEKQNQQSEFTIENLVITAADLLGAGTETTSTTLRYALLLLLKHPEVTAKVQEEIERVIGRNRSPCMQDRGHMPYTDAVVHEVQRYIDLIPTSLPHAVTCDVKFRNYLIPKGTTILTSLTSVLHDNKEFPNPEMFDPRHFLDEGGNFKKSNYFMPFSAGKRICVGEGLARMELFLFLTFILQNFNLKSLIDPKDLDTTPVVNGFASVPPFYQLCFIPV
# [25] = tested on: Cavia porcellus; assay: Antialzheimer activity in Hartley guinea pig assessed as reduction in brain amyloid beta 40 level at 10 mg/kg, po measured after 4 hrs post dosing relative to control; format: functional; design: scale not given: the % may be the effect or the level left
# [26] = Volume of distribution at steady state in rat at 1 mg/kg, iv; format: ADME, organism-based; design: dose 1 mg/kg, route intravenous; settings: in vivo, read-out: Vdss
# [27] = tested on: Cavia porcellus; assay: Antialzheimer activity in Hartley guinea pig assessed as increase in brain amyloid beta 38 level at 10 mg/kg, po measured after 4 hrs post dosing relative to control; format: functional
# [28] = target: T1, Cytochrome P450 2C8 (Homo sapiens, UniProt P10632); assay: Inhibition of CYP2C8 (unknown origin); format: ADME
# T1 sequence (P10632 whole entry): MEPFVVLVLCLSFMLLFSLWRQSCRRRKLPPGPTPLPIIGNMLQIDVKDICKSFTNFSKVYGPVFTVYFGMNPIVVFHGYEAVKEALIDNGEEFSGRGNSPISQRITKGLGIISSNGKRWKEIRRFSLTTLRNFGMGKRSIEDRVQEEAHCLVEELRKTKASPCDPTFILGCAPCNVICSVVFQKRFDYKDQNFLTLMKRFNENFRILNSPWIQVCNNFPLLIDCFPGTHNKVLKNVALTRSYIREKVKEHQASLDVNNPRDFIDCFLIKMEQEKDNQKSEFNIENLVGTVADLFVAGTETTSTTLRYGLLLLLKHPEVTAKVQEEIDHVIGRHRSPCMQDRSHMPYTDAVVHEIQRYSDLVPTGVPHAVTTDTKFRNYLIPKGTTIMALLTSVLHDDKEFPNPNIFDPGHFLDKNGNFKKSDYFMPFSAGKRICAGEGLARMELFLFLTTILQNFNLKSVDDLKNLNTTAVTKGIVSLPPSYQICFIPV
# [29] = tested on: Cavia porcellus; assay: Antialzheimer activity in Hartley guinea pig assessed as reduction in brain total amyloid beta level at 90 mg/kg, po measured after 4 hrs post dosing relative to control; format: functional; design: scale not given: the % may be the effect or the level left
# [30] = Bioavailability in rat at 1 mg/kg, iv and 5 mg/kg, po; format: ADME, organism-based; settings: in vivo
# [31] = target: Cytochrome P450 3A4 (Homo sapiens, UniProt P08684); assay: Inhibition of CYP3A4 (unknown origin); format: ADME
# Cytochrome P450 3A4, sequence (P08684 whole entry): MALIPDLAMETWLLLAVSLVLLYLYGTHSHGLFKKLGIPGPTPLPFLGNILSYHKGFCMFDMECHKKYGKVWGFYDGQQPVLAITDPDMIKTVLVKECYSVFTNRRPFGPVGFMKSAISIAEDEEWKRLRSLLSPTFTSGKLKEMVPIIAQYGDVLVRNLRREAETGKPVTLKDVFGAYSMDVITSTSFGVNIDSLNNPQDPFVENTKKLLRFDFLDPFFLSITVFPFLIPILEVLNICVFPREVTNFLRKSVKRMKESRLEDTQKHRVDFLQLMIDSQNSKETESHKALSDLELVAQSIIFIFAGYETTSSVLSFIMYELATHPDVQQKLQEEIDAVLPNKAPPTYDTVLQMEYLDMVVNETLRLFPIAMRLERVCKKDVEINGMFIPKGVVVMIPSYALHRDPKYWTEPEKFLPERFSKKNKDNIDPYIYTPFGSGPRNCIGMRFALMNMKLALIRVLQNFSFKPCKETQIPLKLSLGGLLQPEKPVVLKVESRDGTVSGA
# [32] = Drug uptake in Hartley guinea pig cerebrospinal fluid at 30 mg/kg, po after 4 hrs post dosing; format: ADME, organism-based, Cavia porcellus; design: dose 30 mg/kg, route oral; settings: read-out: Drug uptake
# [33] = Drug uptake in Hartley guinea pig cerebrospinal fluid at 90 mg/kg, po after 4 hrs post dosing; format: ADME, organism-based, Cavia porcellus; design: dose 90 mg/kg, route oral; settings: read-out: Drug uptake
# [34] = Apparent intrinsic clearance in rat liver microsomes; format: ADME; settings: read-out: CLH(app)
# [35] = tested on: Cavia porcellus; assay: Antialzheimer activity in Hartley guinea pig assessed as increase in brain amyloid beta 38 level at 30 mg/kg, po measured after 4 hrs post dosing relative to control; format: functional
# [36] = target: Gamma-secretase; assay: Modulation of gamma secretase in HEK293 NdeltaE cells assessed as inhibition of notch signalling; format: cell-based, Homo sapiens
# [37] = Plasma concentration in Hartley guinea pig at 30 mg/kg, po after 4 hrs post dosing; format: ADME, organism-based, Cavia porcellus; design: dose 30 mg/kg, route oral
# [38] = target: T2, Cytochrome P450 1A2 (Homo sapiens, UniProt P05177); assay: Inhibition of CYP1A2 (unknown origin); format: ADME
# T2 sequence (P05177 whole entry): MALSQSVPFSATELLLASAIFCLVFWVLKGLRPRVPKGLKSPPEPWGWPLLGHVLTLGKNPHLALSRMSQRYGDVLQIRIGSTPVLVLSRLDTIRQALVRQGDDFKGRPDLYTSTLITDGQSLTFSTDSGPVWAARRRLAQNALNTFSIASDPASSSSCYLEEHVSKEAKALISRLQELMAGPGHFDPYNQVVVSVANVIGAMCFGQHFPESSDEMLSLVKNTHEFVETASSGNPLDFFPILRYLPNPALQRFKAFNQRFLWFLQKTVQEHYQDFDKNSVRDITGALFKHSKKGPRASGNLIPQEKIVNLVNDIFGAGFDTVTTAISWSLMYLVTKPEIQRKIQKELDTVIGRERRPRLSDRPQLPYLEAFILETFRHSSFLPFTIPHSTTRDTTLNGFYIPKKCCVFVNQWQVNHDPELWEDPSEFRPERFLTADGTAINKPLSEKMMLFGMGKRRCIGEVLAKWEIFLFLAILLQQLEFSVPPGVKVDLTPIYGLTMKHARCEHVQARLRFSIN
# [39] = tested on: Cavia porcellus; assay: Antialzheimer activity in Hartley guinea pig assessed as reduction in brain amyloid beta 42 level at 30 mg/kg, po measured after 4 hrs post dosing relative to control; format: functional; design: scale not given: the % may be the effect or the level left
# [40] = Apparent intrinsic clearance in human liver microsomes; format: ADME; settings: read-out: CLH(app)
# [41] = Drug uptake in Hartley guinea pig brain at 30 mg/kg, po after 4 hrs post dosing; format: ADME, organism-based, Cavia porcellus; design: dose 30 mg/kg, route oral; settings: read-out: Drug uptake
# [42] = tested on: Cavia porcellus; assay: Antialzheimer activity in Hartley guinea pig assessed as reduction in brain total amyloid beta level at 10 mg/kg, po measured after 4 hrs post dosing relative to control; format: functional; design: scale not given: the % may be the effect or the level left
# [43] = Drug uptake in Hartley guinea pig brain at 90 mg/kg, po after 4 hrs post dosing; format: ADME, organism-based, Cavia porcellus; design: dose 90 mg/kg, route oral; settings: read-out: Drug uptake
# [44] = Lipophilicity, log D of the compound by shake flask method; format: physicochemical; settings: octanol/water
# [45] = Passive apparent permeability from apical to basolateral side in RRCK cells; format: ADME, cell-based, Canis lupus familiaris, MDCKII-LE; settings: dog, MDCK
# [46] = Fraction unbound in Hartley guinea pig plasma; format: ADME, cell-free, Cavia porcellus
# [47] = tested on: Cavia porcellus; assay: Antialzheimer activity in Hartley guinea pig assessed as increase in brain amyloid beta 38 level at 90 mg/kg, po measured after 4 hrs post dosing relative to control; format: functional
# [48] = Drug uptake in Hartley guinea pig brain at 10 mg/kg, po after 4 hrs post dosing; format: ADME, organism-based, Cavia porcellus; design: dose 10 mg/kg, route oral; settings: read-out: Drug uptake
# [49] = tested on: MDR1 (human); assay: Permeability from apical to basolateral side in MDCK cells expressing human MDR; format: ADME, cell-based, Canis lupus familiaris; settings: dog, read-out: permeability
# [50] = tested on: Cavia porcellus; assay: Antialzheimer activity in Hartley guinea pig assessed as reduction in brain amyloid beta 42 level at 10 mg/kg, po measured after 4 hrs post dosing relative to control; format: functional; design: scale not given: the % may be the effect or the level left
# [51] = Half life in human hepatocytes; format: ADME, cell-based, Hepatocyte
# [52] = Apparent intrinsic clearance in human hepatocytes; format: ADME, cell-based, Hepatocyte; settings: read-out: CLH(app)
smiles,measurement,setting,value
Cc1cn(-c2ccc3n(c2=O)CCN(CCOc2ccc(Cl)cc2C(F)(F)F)C3=O)cn1,Activity,[1],Dose-dependent effect
same,IC50,[2],0.101 µM
same,IC50,[3],15.4 µM
same,Activity,[4],Dose-dependent effect
same,half-life,[5],6.88 h
same,concentration at 4 h,[6],12.7 nM
same,Activity,[7],69%
same,clearance,[8],1.41 mL/min/kg
same,Kp at 1 h,[9],0.24
same,concentration at 1 h,[10],1000 ng/mL
same,concentration at 4 h,[11],367 nM
same,fraction unbound,[12],0.008
same,Activity,[13],37%
same,concentration at 1 h,[14],4140 ng/mL
same,efflux ratio,[15],1.8
same,IC50,[16],> 30 µM
same,Kp uu,[17],0.32
same,fraction unbound,[18],0.0063
same,Activity,[19],92%
same,Activity,[20],32%
same,concentration at 4 h,[21],7300 nM
same,fraction unbound,[22],0.0084
same,solubility kinetic,[23],95.6 µM
same,IC50,[24],> 30 µM
same,Activity,[25],88%
same,Vd,[26],0.69 L/kg
same,Activity,[27],102%
same,IC50,[28],12.3 µM
same,Activity,[29],82%
same,bioavailability,[30],88%
same,IC50,[31],> 30 µM
same,concentration at 4 h,[32],35.7 nM
same,concentration at 4 h,[33],239 nM
same,CLint scaled,[34],47.6 mL/min/kg
same,Activity,[35],108%
same,IC50,[36],> 50 µM
same,concentration at 4 h,[37],819 nM
same,IC50,[38],> 30 µM
same,Activity,[39],56%
same,CLint scaled,[40],< 8 mL/min/kg
same,concentration at 4 h,[41],9160 nM
same,Activity,[42],100%
same,concentration at 4 h,[43],52400 nM
same,logD,[44],3.32
same,Papp A→B,[45],10.5 ×10⁻⁶ cm/s
same,fraction unbound,[46],0.07
same,Activity,[47],131%
same,concentration at 4 h,[48],2910 nM
same,Papp A→B,[49],5.8 ×10⁻⁶ cm/s
same,Activity,[50],81%
Cc1cn(-c2ccc3c(c2O)CCN(Cc2cccc(C(F)(F)F)c2)C3=O)cn1,IC50,[2],0.4 µM
same,half-life,[51],0.322 h
same,efflux ratio,[15],1.9
same,CLint scaled,[52],90.5 mL/min/kg
same,CLint scaled,[40],< 8 mL/min/kg
same,Papp A→B,[45],10.4 ×10⁻⁶ cm/s
